In patent publication US9399192B2, “Carbon dioxide absorber and carbon dioxide separation/recovery method using the absorber” (ASAHI KASEI KABUSHIKI KAISHA, priority 2011, dated 2016):
Read-outs that look alike come from different tables or passages of the source.

How the values were obtained:
[1] = pKb of amine compounds / pKa of weakly acidic compounds calculated from pH of aqueous solution; settings: amine compound, aqueous solution at 30° C., calculated from pH of 0.4 M aqueous solution
[2] = pH 0.4
[3] = Evaluation of reactivity of aqueous amine solutions with carbon dioxide; type: physicochemical; settings: for Absorbed amount at 30° C. (moles CO2/moles N) / Absorbed amount at 90° C. (moles CO2/moles N): aqueous amine 1.81 mol/L (monoamine) or 0.91 mol/L (diamine), CO2 300 mL/min 15 minutes; for CO2 desorption performance (moles CO2/moles N): difference between absorbed amount at 30° C. and at 90° C.
Procedure: Amine compounds were mixed with water to prepare aqueous amine solutions. At this time, the concentration of monoamine compounds having one amino group was adjusted to 1.81 mol/L, while the concentration of diamine compounds having two amino groups was adjusted to 0.91 mol/L. Carbon dioxide gas was blown into 25 mL aliquots of each aqueous amine solution for 15 minutes at 300 mL/min to allow the amine compound to react with the carbon dioxide. The reactions were carried out at temperatures of 30° C. and 90° C., and the reacted amount was calculated from element ratios of C and N before and after the reaction as measured with the Model TOC-VCP and Model TNM-1 Total Organic Carbon Analyzers (Shimadzu Corp.).
The absorbed amounts are represented by the number of moles of carbon dioxide reacting with respect to 1 mole of amino group, or in other words, moles CO2/moles N.
(§1) Table 7 indicates a comparison of performance when used as an amine compound for a carbon dioxide absorber. Those parameters evaluated as indicators of performance consisted of absorbed amount at 30° C., absorbed amount at 90° C. and heat of reaction. Furthermore, the difference between the absorbed amount at 30° C. and the absorbed amount at 90° C. was taken to represent carbon dioxide desorption performance. Values for heat of reaction are shown in Table 7 after converting to heat of reaction (kJ/mol) per 1 mole of reacted carbon dioxide using a calibration curve obtained when the reacted amount of the amino groups of each amine compound and carbon dioxide reached 0.10 mol CO2/mol N.

[4] = Evaluation of heat of reaction of aqueous amine solutions (C-80 reaction calorimeter, FIG. 9C); type: physicochemical; settings: 30° C., per 1 mole of reacted CO2 at reacted amount 0.10 mol CO2/mol N
Procedure: * Evaluation of Heat of Reaction Heat of reaction was measured using the apparatus shown in FIG. 9C with the Model C-80 Reaction calorimeter (Setaram Inc.) 936. A gas circulation normal pressure type cell (stainless steel 31/1415) was used for the cell, and the gas inlet port and outlet port were connected as shown in FIG. 9C. 4 g aliquots of each aqueous amine compound solution were placed in the cell after adjusting to the same concentrations as those used in the aforementioned evaluation of reactivity ([…] in the case of monoamine compounds and […] in the case of diamine compounds) and the cell was then placed in the C-80 Reaction calorimeter. The cell temperature was adjusted to 30° C. and allowed to stabilize. 50 mL of carbon dioxide were injected into a gas syringe 930 from carbon dioxide supplied from a carbon dioxide cylinder 929 by closing a valve 932 followed by opening the valve 932. The reacted amount was then measured based on the change in internal pressure measured with a pressure gauge 933 while measuring the amount of heat generated with the C-80 Reaction calorimeter. The amount of heat generated and reacted amount were calculated in advance using a calibration curve of heat of compression and internal pressure determined in the absence of a sample.
as §1

physchem = settings: aqueous solution
[5] = type: physicochemical
Description: Thus, Compound A is extremely useful since it is able to reduce volatilization loss when contacting a gas. In addition, the weak basicity per amino group is attributable to the diamine structure. […]. Thus, Compound A is extremely useful since it allows a wide range of materials to be selected for use in the reactor.

| SMILES | pKb [1] | Absorbed amount at 30° C. (moles CO2/moles N) [3] [moles CO2/moles N] | Absorbed amount at 90° C. (moles CO2/moles N) [3] [moles CO2/moles N] | CO2 desorption performance (moles CO2/moles N) [3] [moles CO2/moles N] | Heat of reaction [4] [kcal/mol] | also measured |
| --- | --- | --- | --- | --- | --- | --- |
| OCCNCCO [DEA, Diethanolamine] |  |  |  |  |  | pKb [2]: 5.4 |
| COB(OC)OC [TMB, Trimethylborate] |  |  |  |  |  | pKa (physchem): 8.7 |
| OCCNCC(O)CNCCO [BHEP, 1,3-bis(2-hydroxyethylamino)propan-2-ol] |  | 0.516 | 0.214 | 0.302 | 16.1 | vapor pressure [5]: 0.04 mPa; pKb [2]: 6.3 |
| CCOB(OCC)OCC [TEB, Triethylborate] |  |  |  |  |  | pKa (physchem): 8.1 |
| NCCO [MEA, Monoethanolamine] |  | 0.614 | 0.400 | 0.214 | 21.6 | pKb [2]: 4.7 |
| NCC(O)CN [DAP, 1,3-diaminopropan-2-ol] |  | 0.601 | 0.409 | 0.192 | 20.9 |  |
| NC(CO)CO [Example 2A13PD, 2-amino-1,3-propanediol] | 5.6 |  |  |  |  |  |
| C1CNCCN1 [Pz, piperazine] | 4.8 |  |  |  |  |  |
| OB(O)O [Boric acid] |  |  |  |  |  | pKa (physchem): 9.2 |

More lines, main results first:

| pKb [1] | Absorbed amount at 30° C. (moles CO2/moles N) [3] [moles CO2/moles N] | Absorbed amount at 90° C. (moles CO2/moles N) [3] [moles CO2/moles N] | CO2 desorption performance (moles CO2/moles N) [3] [moles CO2/moles N] | Heat of reaction [4] [kcal/mol] | SMILES | also measured |
| --- | --- | --- | --- | --- | --- | --- |
| 4.1 |  |  |  |  | CC(C)NCCO [IPAE, 2-isopropylaminoethanol] |  |
| 4.4 | 0.631 | 0.279 | 0.352 | 20.8 | CCNCCO [EAE, 2-ethylaminoethanol] |  |
|  | 0.498 | 0.213 | 0.285 | 16.3 | CC(O)CNCC(O)CNCC(C)O (centres unmarked) [BHPP, 1,3-bis(2-hydroxypropylamino)propan-2-ol] |  |
|  | 0.506 | 0.213 | 0.293 | 16.1 | CC(O)CNCC(O)CNCCO (centres unmarked) [HEHPP, 1-(2-hydroxyethylamino)-3-(2-hydroxypropylamino)propan-2-ol] |  |
